Data set [1] deals with RSV-A Long. The data set is described as follows: CPE assay (ATPlite), RSV-A Long in HEp-2 cells. The data set is classed as cell-based. Conditions: human respiratory syncytial virus, 120 h, HEp-2, RSV-A Long MOI 0.1, 5 days. On the technique in general: ATP-based viability assays read luminescence as a measure of living cells.
The next data set concerns RSV-B VR-955. The data set is described as follows: CPE assay, RSV-B VR-955 in A549 cells. The class given is cell-based. The note with it: human respiratory syncytial virus. As for the experimental part: (§1) HEp-2, Vero, and BHK were seeded at 8,000 cells per well (cpw) in growth medium (Dulbecco’s Modified Eagle Medium (DMEM) with 1% GlutaMAX, 1% Penicillin/Streptomycin (P/S), 1% Non-Essential Amino Acids (NEAA), 10% Fetal Bovine Serum (FBS)) or (Minimum Essential Medium (MEM) with 10% FBS, 1% NEAA, 1% P/S) or (Eagle’s Minimum Essential Medium with L-Glutamine, with 10% FBS, 1% P/S) respectively. A549 seeded at 3,000 cpw in F-12K Kaighn’s Modification nutrient mixture with 10% FBS, 1% NEAA, 1% P/S. Cells seeded at time of infection in 96-well plates, final well volume 100μL. Compounds suspended in DMSO, serially diluted and added to wells at 0.5% final DMSO concentration. Viral stocks stabilized with 25% sucrose, previously titered using plaque assay, were added at desired MOI. Sucrose added to cells-only control wells to match percent added with virus. Unless otherwise noted, RSV-A strains were tested at 0.1 MOI and incubated for 5 days in a 37°C, 5% CO2 humidified incubator, and RSV-B at 0.5 MOI for 6 days. Cytopathic effect (CPE) determined using ATPlite (Perkin Elmer) measured with Envision luminometer. For RT-qPCR, RNA was extracted from whole well using Ambion RNAqueous-96 Automated Kit, and RT-qPCR run using Applied Biosystems TaqMan RNA-to-CT 1-Step Kit. […] All EC50s were calculated using the XLFit four-parameter logistic model 200 in Microsoft Excel.

For another data set, the system named is RSV-A2. Description: CPE assay, RSV-A2 in Vero cells. The data set is classed as cell-based. Conditions: human respiratory syncytial virus. The protocol: as §1
Another data set relates to A549 cells. The data set is described as follows: Cytotoxicity (ATPlite) in A549 cells. The class given is cell-based, human. The note with it: at up to 50 μM, 3 days. As for the experimental part: (§2) HEp-2, A549, and CHO cells were seeded at 3,000 cpw in their respective growth medium. CHO growth medium used was RPMI medium 1640 with 10% FBS, 1% P/S, 1% GlutaMAX. HEK-293 cells seeded at 10,000 cpw in DMEM growth medium. Undifferentiated HBECs were seeded in collagen-coated 96-well plates at 7,500 cpw in appropriate growth medium. Compound added and incubated for 3 days (4 days for HBECs) as described above. Plates read with ATPlite and CC50 calculated as EC50s as described above. SI = CC50/EC50 within a cell line.

In a further data set the test system is HBEC. Description: Cytotoxicity (ATPlite) in primary HBECs. The data set is classed as cell-based, human. As for the experimental part: as §2
Data set [2] has as its system RSV-A clinical isolates. Description: Susceptibility of USA-derived RSV-A clinical isolates. The data set is classed as cell-based. Conditions: human respiratory syncytial virus. As for the experimental part: Serial dilutions of the compound were added to cells infected with RSV-A isolates at an MOI of 0.1 (except for isolate 629-9-2 at an MOI of 0.01) or RSV-B isolates at an MOI of 0.5 (expect for isolate 629-24/2007 at an MOI of 0.0044) and were treated for 5 or 6 days, respectively. […] This is consistent with the fact that the viral N protein, which is the putative target of the antiviral effect of EDP-938, is the most conserved RSV protein [11].
HEp-2, Vero, and BHK were seeded at 8,000 cells per well (cpw) in growth medium (Dulbecco’s Modified Eagle Medium (DMEM) with 1% GlutaMAX, 1% Penicillin/Streptomycin (P/S), 1% Non-Essential Amino Acids (NEAA), 10% Fetal Bovine Serum (FBS)) or (Minimum Essential Medium (MEM) with 10% FBS, 1% NEAA, 1% P/S) or (Eagle’s Minimum Essential Medium with L-Glutamine, with 10% FBS, 1% P/S) respectively. A549 seeded at 3,000 cpw in F-12K Kaighn’s Modification nutrient mixture with 10% FBS, 1% NEAA, 1% P/S. Cells seeded at time of infection in 96-well plates, final well volume 100μL. Compounds suspended in DMSO, serially diluted and added to wells at 0.5% final DMSO concentration. […] Cytopathic effect (CPE) determined using ATPlite (Perkin Elmer) measured with Envision luminometer. […] All EC50s were calculated using the XLFit four-parameter logistic model 200 in Microsoft Excel. […]

Data set [3] concerns RSV-A clinical isolates. Description: RSV Virospot reduction assay (ViroClinics), RSV-A isolates from the Netherlands. The class given is cell-based. Conditions: human respiratory syncytial virus, 10 RSV-A strains from the Netherlands. The protocol: To further expand testing against clinical isolates, the compound was assayed against a panel of 10 RSV-A and 10 RSV-B strains mainly isolated from children of age 2–200 weeks in the Netherlands.
RSV clinical isolates were obtained from Baylor University and Medical College of Wisconsin. MOI of 0.1 used for all clinical isolates except RSV-A 629-9-2 (0.01) and RSV-B 629-24/2007 (0.0044) due to low titer. Virospot reduction assay was run by ViroClinics (Rotterdam, the Netherlands) against 20 additional RSV clinical isolates.

Data set [4] concerns RSV-B VR-955 EDP-938 resistant populations. Description: Susceptibility of EDP-938 resistant RSV-B VR-955 populations. The class given is cell-based, respiratory syncytial virus.
Data set [5] concerns RSV-A Long. The data set is described as follows: Time-of-addition study, CPE endpoint. The class given is cell-based, respiratory syncytial virus. The note with it: for EC50: human respiratory syncytial virus, read-out: EC50 for cytoprotection. As for the experimental part:
In order to help determine which step of the viral life cycle EDP-938 blocks multiple in vitro time-of-addition studies were performed. In the first study, EDP-938 was administered to cells infected with RSV-A Long at a MOI of 0.1 at 2 hours pre-infection (-2) or 2, 6, or 24 hours post-infection (hpi), and viral CPE evaluated 5 days later. […] A second time-of-addition study explored the ability of EDP-938 to protect not just a population experiencing a spreading infection, but individual cells already infected with RSV. Using a MOI of 3, which infects approximately 95% of all cells, virus was cold-adsorbed to the cells for 1 hour to synchronize infection before transfer to 37°C to induce fusion (marking the 0 hpi time point). Compound was added at times indicated and a 24 hpi RT-qPCR endpoint was employed to constrain viral replication cycle to a single complete cycle.
As above, but 8,000 HEp-2 cpw seeded 1-day pre-infection. 2h pre-infection compound or media added. Plates incubated 2h. Viral infection at 0.1 MOI, incubated 1h. Viral inoculum removed, cells washed, and media replaced with compound for -2h sample. Compound added at 2h, 6h, and 24h post-infection to appropriate plates. 5dpi cell viability calculated as described above.

The subject of data set [6] is RSV mRNA transcription and genome replication. Description: RSV minigenome system. The class given is cell-based, respiratory syncytial virus.
In data set [7] the test system is GS-5806- and AZ-27-resistant RSV. The data set is described as follows: Activity against GS-5806- and AZ-27-selected resistant viruses. The data set is classed as cell-based, respiratory syncytial virus. Conditions: GS-5806- and AZ-27-resistant viruses.

What is called EC90 is the concentration at which the effect reaches the 90% level. A word on the EC50: it is the concentration that produces a half-maximal response.

For `O=C1Nc2ccccc2C(c2ccccc2)=N[C@@H]1Nc1nnc(-c2ncc(C(F)(F)F)cc2N2CCOCC2)o1` [EDP-938], the EC90 was found to be 60 ± 18 nM in the data set on RSV-A Long [1] (CPE), 223 ± 90 nM with RSV-B VR-955 (RSV-B VR-955) and 44 ± 18 nM in the data set with RSV-A2. Besides, the EC50 was determined as 52 ± 12 nM in the data set with RSV-A Long [1] (CPE (ATPlite), read-out: EC50); 72 ± 9 nM in the data set on RSV-B VR-955 (144 h, RSV-B VR-955 MOI 0.5, 6 days); 33 ± 7 nM in the data set on RSV-A2; 76 nM with RSV-A clinical isolates [2]; 43 nM in the data set on RSV-A clinical isolates [3]; 49 nM with RSV-A Long [5] (120 h, compound addition at -2 h, HEp-2, RSV-A Long MOI 0.1, CPE 5 days). Also, the results for the EC50 in the data set with RSV-A Long [5] (compound addition at 2 h post-infection), in the data set on RSV-A Long [5] (compound addition at 6 h post-infection) and with RSV-A Long [5] (compound addition at 24 h post-infection) were 55 nM, 76 nM and 66 nM, respectively. For the same molecule, the cytotoxicity result in the data set with A549 cells is “no significant cytotoxicity”; with HBEC (HBEC, at up to 50 μM, 4 days), “no significant cytotoxicity”. Besides, the selectivity index in the data set with HBEC (HBEC cells, SI = CC50/EC50 within a cell line) was > 2,380. Also, the “EC50 Fold Change vs. WT” value in data set [4] (RSV-B VR-955 Population 1, N: M109K, L139Q (dual WT/mutant population)) is 42 fold; in data set [4] (RSV-B VR-955 Population 2, N: M109T), 6.6 fold; in [4] (RSV-B VR-955 Wild-Type), 1 fold. In the data set on RSV-A Long [5] (when given up to 24 hpi, RSV-A Long MOI 0.1), the cytoprotective activity maintained entry was “about 80%”. Further, the “effect on mRNA transcription or genome replication” value in data set [6] is “had no effect”. Also, in [7], the “cross resistance of GS-5806- and AZ-27-resistant strains” value is recorded as “no signs of cross resistance”.

Values taken from PMC7993833, “EDP-938, a novel nucleoprotein inhibitor of respiratory syncytial virus, demonstrates potent antiviral activities in vitro and in a non-human primate model” (PLoS Pathogens, 2021).
